Consider one compound from patent publication US20090215752A1, “Compounds, preparation and therapeutic use thereof” (priority 2005, published 2009).

In one test the target is T1, PDE2 (Homo sapiens, UniProt O00408).
T1 construct: PDE2 was isolated from human platelets, provided by Etablissement Français du Sang-Alsace; tissue Etablissement Français du Sang-Alsace; host or cells: human platelets
Kind of test: Inhibition of PDE2 (radioenzymatic phosphodiesterase assay). Format: biochemical. The protocol: (§1) 2.1.1. Isolation of Phosphodiesterases from Smooth Muscle A 3 g segment of bovine aortic media cut into pieces with scissors was homogenized with an ultra-turrax then a potter glass/glass homogenizer in 7 volumes by weight of buffer A containing a protease inhibitor cocktail (20 mM Tris-HCl, 0.25 M saccharose, 2 mM magnesium acetate, 1 mM dithiothreitol, 5 mM EGTA, 2000 U/ml aprotinin, 10 mg/l leupeptin and 10 mg/l soya trypsic inhibitor). The homogenizate was centrifuged at 105,000 g for 1 hour. The supernatant was loaded on a DEAE-Sephacel column (15×1.6 cm) pre-equilibrated with buffer B (buffer A without the saccharose, EGTA and protease inhibitors). The column was washed until there was no detectable absorption at 280 nm, then eluted with a linear gradient of NaCl (0-0.5 M) in buffer B. 3-ml fractions were collected and enzyme activity was determined under the conditions described hereinbelow to localize the different enzymes PDE1, PDE3, PDE4 and PDE5 which were aliquoted and frozen at −80° C. (Lugnier et al., Biochem. Phamacol., 1986, 35: 1746-1751). PDE2 was isolated from human platelets, provided by Etablissement Français du Sang-Alsace, according to Kameni Tcheudji J F et al., (J. Mol. Biol. 2001; 310: 181-791), and stored until use at −80° C. in small aliquots.
(§2) Cyclic nucleotide phosphodiesterase activity was determined by a radioenzymatic method using tritium-labelled cyclic GMP or AMP (1 μM) as substrate (Lugnier et al., 1986). ^3H-labelled adenosine or guanosine monophosphate formed by hydrolysis of the radiolabelled cyclic nucleotide was then converted to ^3H-labelled adenosine or guanosine in a second reaction with […] in excess. The nucleoside formed was separated from the nucleotides by anion exchange chromatography. Nucleoside radioactivity was determined by liquid scintillation counting. Enzymatic incubations were carried out under conditions allowing no more than 15% hydrolysis of the substrate; each point was performed in duplicate.
The concentration of substance which inhibits enzymatic activity by 50% (IC50) at 1 μM cyclic AMP was calculated by nonlinear regression from the experimental values of hydrolysis rate (Prism, GraphPad).

The test system of the next test is PDE1. As to the kind of experiment: Selectivity: inhibition of PDE1 (radioenzymatic assay). Format: biochemical, bovine. Conditions: Table 2; 10 μM compound. As for the experimental part:
as §1, with “PDE2 was isolated from human platelets, provided by Etablissement Français du Sang-Alsace, according to Kameni Tcheudji J F et al., (J. Mol. Biol. 2001; 310: 181-791), and stored until use at −80° C. in small aliquots.” left out
(§3) Cyclic nucleotide phosphodiesterase activity was determined by a radioenzymatic method using tritium-labelled cyclic GMP or AMP (1 μM) as substrate (Lugnier et al., 1986). ^3H-labelled adenosine or guanosine monophosphate formed by hydrolysis of the radiolabelled cyclic nucleotide was then converted to ^3H-labelled adenosine or guanosine in a second reaction with one nucleotidase in excess. […] Nucleoside radioactivity was determined by liquid scintillation counting. […]
(§4) The activity of the compounds was evaluated on other phosphodiesterase isoforms, particularly basal state or calmodulin-activated PDE1 from vascular smooth muscle, PDE3, PDE4 and PDE5 from vascular smooth muscle. The results obtained are presented in Tables 1 and 2 hereinbelow and are expressed as the percentage inhibition of enzymatic activity produced by […] of the test compound.

A further test has as its target T2, PDE3 (Bos taurus, UniProt A0A3Q1M1E8).
T2 sequence (A0A3Q1M1E8 1-1126): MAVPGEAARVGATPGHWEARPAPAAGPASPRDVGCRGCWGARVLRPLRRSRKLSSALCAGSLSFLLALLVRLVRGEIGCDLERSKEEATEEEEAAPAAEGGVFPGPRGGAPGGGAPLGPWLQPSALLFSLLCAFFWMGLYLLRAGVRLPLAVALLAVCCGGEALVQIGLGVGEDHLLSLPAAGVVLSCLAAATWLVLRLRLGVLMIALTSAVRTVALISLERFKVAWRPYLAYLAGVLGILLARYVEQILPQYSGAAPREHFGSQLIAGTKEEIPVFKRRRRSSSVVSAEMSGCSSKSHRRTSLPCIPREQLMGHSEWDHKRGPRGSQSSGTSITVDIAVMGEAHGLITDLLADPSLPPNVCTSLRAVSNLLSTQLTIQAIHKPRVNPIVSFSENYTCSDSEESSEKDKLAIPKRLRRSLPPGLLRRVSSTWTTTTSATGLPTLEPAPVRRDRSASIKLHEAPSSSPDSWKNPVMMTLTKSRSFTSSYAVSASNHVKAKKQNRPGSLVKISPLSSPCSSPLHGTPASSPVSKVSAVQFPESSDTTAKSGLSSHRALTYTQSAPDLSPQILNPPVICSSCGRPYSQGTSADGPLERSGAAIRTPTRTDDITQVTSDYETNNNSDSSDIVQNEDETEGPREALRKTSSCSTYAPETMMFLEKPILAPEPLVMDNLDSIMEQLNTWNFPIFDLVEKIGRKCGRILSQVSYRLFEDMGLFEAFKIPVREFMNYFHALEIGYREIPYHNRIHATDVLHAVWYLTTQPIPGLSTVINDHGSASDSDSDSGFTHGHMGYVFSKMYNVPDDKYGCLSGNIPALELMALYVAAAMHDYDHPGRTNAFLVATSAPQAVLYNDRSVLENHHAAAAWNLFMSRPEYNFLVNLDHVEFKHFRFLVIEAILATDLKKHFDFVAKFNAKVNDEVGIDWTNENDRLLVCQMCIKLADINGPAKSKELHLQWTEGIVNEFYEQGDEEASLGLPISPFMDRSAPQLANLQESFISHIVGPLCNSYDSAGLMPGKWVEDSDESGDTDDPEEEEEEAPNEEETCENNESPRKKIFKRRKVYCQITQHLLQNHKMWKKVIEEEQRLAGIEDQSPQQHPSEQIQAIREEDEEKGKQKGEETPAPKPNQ
As to the kind of experiment: Selectivity: inhibition of PDE3 (radioenzymatic assay). Format: biochemical, bovine. Conditions: Table 2; 10 μM compound; read-out: PDE3 percentage inhibition at 10 μM. As for the experimental part:
as §1, with “PDE2 was isolated from human platelets, provided by Etablissement Français du Sang-Alsace, according to Kameni Tcheudji J F et al., (J. Mol. Biol. 2001; 310: 181-791), and stored until use at −80° C. in small aliquots.” left out
as §3, §4

For the next test, the system named is PDE4. Kind of test: Selectivity: inhibition of PDE4 (radioenzymatic assay). The class given is biochemical, bovine. Conditions: Table 2; 10 μM compound. As for the experimental part: as §1, §2, §4
The target in the next test is T3, PDE5 (Bos taurus, UniProt Q28156).
T3 construct: PDE3, PDE4 and PDE5 from vascular smooth muscle; from tissue; host or cells: bovine aortic media (vascular smooth muscle), DEAE-Sephacel fraction
As to the kind of experiment: Selectivity: inhibition of PDE5 (radioenzymatic assay). Format: biochemical, bovine. Particulars: Table 2; 10 μM compound; read-out: PDE5 percentage inhibition at 10 μM. As for the experimental part: as §1, with “PDE2 was isolated from human platelets, provided by Etablissement Français du Sang-Alsace, according to Kameni Tcheudji J F et al., (J. Mol. Biol. 2001; 310: 181-791), and stored until use at −80° C. in small aliquots.” left out
as §3, §4

T1 sequence (O00408 whole entry): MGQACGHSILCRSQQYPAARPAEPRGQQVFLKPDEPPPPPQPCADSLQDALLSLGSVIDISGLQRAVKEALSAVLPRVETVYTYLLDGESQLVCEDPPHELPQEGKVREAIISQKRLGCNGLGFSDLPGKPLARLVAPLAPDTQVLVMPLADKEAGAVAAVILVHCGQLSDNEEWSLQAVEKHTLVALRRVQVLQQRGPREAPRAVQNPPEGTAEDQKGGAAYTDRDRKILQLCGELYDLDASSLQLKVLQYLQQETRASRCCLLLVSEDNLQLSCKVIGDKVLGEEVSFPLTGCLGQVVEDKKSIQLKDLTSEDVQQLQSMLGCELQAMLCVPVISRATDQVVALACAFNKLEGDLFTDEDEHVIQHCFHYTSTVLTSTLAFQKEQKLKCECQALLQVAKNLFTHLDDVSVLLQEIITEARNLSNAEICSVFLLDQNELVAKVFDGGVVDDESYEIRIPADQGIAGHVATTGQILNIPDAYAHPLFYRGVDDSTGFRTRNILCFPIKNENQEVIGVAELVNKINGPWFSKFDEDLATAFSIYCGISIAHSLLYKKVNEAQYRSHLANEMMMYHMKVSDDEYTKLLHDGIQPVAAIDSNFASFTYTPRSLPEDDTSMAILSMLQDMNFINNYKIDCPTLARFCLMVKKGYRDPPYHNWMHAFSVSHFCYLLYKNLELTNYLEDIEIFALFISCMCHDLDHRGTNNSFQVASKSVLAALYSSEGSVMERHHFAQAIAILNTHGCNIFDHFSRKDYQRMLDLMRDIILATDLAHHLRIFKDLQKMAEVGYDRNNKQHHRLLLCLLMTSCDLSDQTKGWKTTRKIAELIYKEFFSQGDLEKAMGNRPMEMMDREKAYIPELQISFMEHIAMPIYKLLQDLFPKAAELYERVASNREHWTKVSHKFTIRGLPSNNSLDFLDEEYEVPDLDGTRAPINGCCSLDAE

For the compound `COCCCc1cccc(C2=NCC(=O)N(C)c3cc(OC)c(-c4ccccc4)c(OC)c32)c1` [Compound 29, 6,8-Dimethoxy-5-[3-(3-methoxy-propyl)-phenyl]-1-methyl-7-phenyl-1,3-dihydro-benzo[e][1,4]diazepin-2-one], the IC50 (in general, the point on the concentration scale where inhibition reaches its midpoint) on PDE2 stood at 800 nM. The inhibition – broadly, the drop in the measured response relative to a control, in per cent – at 10 µM turned out to be 91% at PDE2 (Table 1, 10 μM compound, 1 μM cyclic AMP, read-out: PDE2 percentage inhibition at 10 μM); 40% at PDE3; 19% on PDE5. Moreover, the “PDE1 percentage inhibition at 10 μM” value in the test on PDE1 was found to be 31%. In addition, the “PDE4 percentage inhibition at 10 μM” value in the test with PDE4 was determined as 49%.
